Experimental data: article PMC10766854 (Frontiers in Pharmacology, 2023)

How the values were obtained:
[1] = Pharmacokinetics and bioequivalence after a single subcutaneous injection, plasma liraglutide by LC-MS/MS; format: in vivo, human; conditions: single s.c. 0.6 mg, N = 36
Experimental: This trial was designed as a randomized, open, two-cycle, self-crossover trial. Screening was performed within 28 days prior to dosing, and eligible subjects were admitted to the Phase I Clinical Trial Ward in the afternoon of the first day prior to dosing and fasted for 10 h overnight after dinner. […] A total of 18 subjects received the test formulation in the first cycle, and the other 18 subjects received the reference formulation for administration and were crossover-administered for the second cycle of the study after a 14-day washout period. Drinking water was restricted for 1 h before and 1 h after dosing, water was drunk as needed at all other times, and a standardized nutritious meal was uniformly provided at least 4 h after dosing. The subjects were discharged from the hospital on the third day after dosing. Follow-up examinations were performed 72 h after the last dose of the second cycle.
After collection, the tubes were inverted six times, centrifuged at 4°C, 1,460 g for 10 min, and the plasma was aliquoted and placed it the numbered cryopreservation tube. Plasma samples were stored in a refrigerator at −80°C before analysis.
Waters ACQUITY UPLC (Waters Corporation, United States) and AB Triple Quad 6500+ Mass Spectrometer (SCIEX Technologies, United States) combined with an electrospray ionization source were used for LC-MS/MS analysis. […] The chromatographic separation was performed on a C18 column (Waters) at 60°C with a flow rate of 600 μL/min. The mobile phase A was 0.025% formic acid aqueous solution (v/v), and the mobile phase B was 0.025% formic acid acetonitrile aqueous solution (v/v). The linear range, limit of quantification, accuracy, precision, recovery, selectivity, and stability of the method were verified. […] In the concentration data listings, all missing data are indicated as “-” or NA (not applicable).
The pharmacokinetic parameters, including Tmax, Cmax, AUC0-t, AUC0-∞, t1/2z, AUC_%Extrap, Vz/F, and CLz/F, were calculated using the non-compartmental model of WinNonlin 7.0. Descriptive statistical analysis was performed on PK parameters, and the arithmetic mean, standard deviation, coefficient of variation, maximum, minimum, and geometric mean of each parameter were calculated. If AUC_%Extrap >20%, the subject’s AUC0-∞, t1/2z, Vz/F, and CLz/F were not to be used for descriptive statistical analysis.
Based on the blood concentration data, SAS 9.4 was used for statistical analysis. Cmax, AUC0-t, AUC0-∞, t1/2z, CLz/F, and Vz/F were logarithmically transformed and then analyzed using variance analysis (ANOVA). […] Two one-sided tests were performed for each parameter, and 90% CI of the geometric mean ratio (GMR) of the pharmacokinetic parameters (T/R) was calculated.

[2] = Safety and tolerability assessment (adverse events) in the crossover trial; format: in vivo, human; conditions: single s.c. 0.6 mg
Experimental: Subjects receiving the study drug were included in the safety assessment. The safety assessment included physical examination, vital signs (pre-dose and 1, 3, 12, 24, 48, and 72 h after administration of the study drug in the first and second cycles), laboratory tests, 12-lead electrocardiograms (pre-dose and 3, 24, 48, and 72 h after administration of the study drug in the first and second cycles), and blood glucose monitoring. Laboratory safety assessments were completed at the laboratory of Zhongshan Hospital, Fudan University, including routine blood, blood biochemistry, thyroid function, coagulation function, and urine routine tests. All adverse reactions were coded using MedDRA 21.0 terminology and categorized and analyzed according to SOC/PT.

[3] = Stability of analyte solutions and prepared samples, LC-MS/MS method validation; format: physicochemical; conditions: room temperature
Experimental: Plasma concentrations of liraglutide were analyzed using a validated, sensitive, and specific liquid chromatography–tandem mass spectrometry (LC-MS/MS) method developed by Shanghai WuXi AppTec New Drug Development Co. (Shanghai, China). Waters ACQUITY UPLC (Waters Corporation, United States) and AB Triple Quad 6500+ Mass Spectrometer (SCIEX Technologies, United States) combined with an electrospray ionization source were used for LC-MS/MS analysis. The internal standard of liraglutide was developed in-house. The chromatographic separation was performed on a C18 column (Waters) at 60°C with a flow rate of 600 μL/min. […] The linear range, limit of quantification, accuracy, precision, recovery, selectivity, and stability of the method were verified. The linear range of the analytical method for the determination of liraglutide in plasma was 1.00–250 ng/mL, and the lower limit of quantification (LLOQ) was 1.00 ng/mL. […] The analyte recoveries were determined using three gradients, high, medium, and low, with mean values of 48.0%, 47.6%, and 57.8%, respectively, corresponding to CVs of less than 8% and 57.3 for IS, corresponding to a CV of 5.1%. […] During analysis, plasma concentrations of liraglutide below the limit of quantification were listed as zero and missing values in PK samples before and after Tmax, respectively. […]

[4] = ref US Food and Drug Administration, 2017, cited from earlier work
Experimental: The lower dose on the steeper portion of the exposure–effect curve in healthy subjects was chosen to assess the difference between the subject drug and the reference drug ([CDER, 2014]), and therefore, 0.6 mg was selected as the dose to be administered in this comparative trial.

[5] = ref US Food and Drug Administration, 2017, cited from earlier work; remark: listed apart in the source
Experimental: In five double-blind clinical trials of 26 weeks or longer, the incidence of gastrointestinal adverse reactions in patients was reported to be 41% in the liraglutide treatment group and was dose-related ([US Food and Drug Administration, 2017]). This is consistent with the pharmacodynamic profile of GLP-1R agonist-related drugs. […] In five clinical trials of 26 weeks or longer ([US Food and Drug Administration, 2017]), approximately 50%–70% of Victoza-treated patients were tested for anti-liraglutide antibodies at the end of treatment. Approximately 8.6% of the liraglutide-treated group were detected with low-titer (no serum concentration dilution required) anti-liraglutide antibodies. When comparing all antibody-positive and all antibody-negative patients, antibody formation wa ...

dipeptidyl dipeptidase-4 = conditions: endogenous GLP-1, easily degraded by dipeptidyl dipeptidase-4; ref Drucker, 2003; cited from earlier work
From the text: GLP-1 is an endogenous incretin hormone secreted primarily by intestinal L-cells ([Drucker, 2006]; [Baggio and Drucker, 2007]; [Müller et al., 2019]), which is involved in the regulation of glucose homeostasis through GLP-1R, a G-protein-coupled receptor, in a variety of ways, mainly including stimulation of insulin secretion in a glucose-dependent manner, inhibition of glucagon secretion, reduction of appetite, slowing down of gastric emptying ([Drucker and Nauck, 2006]; [Hare et al., 2010]), enhancement of insulin sensitivity ([Fernández-Millán et al., 2016]; [Capuani et al., 2018]; [Jiang e ...

[6] = healthy Chinese subjects, N = 36
[7] = single dose 0.6 mg subcutaneously

Molecule: CCCCCCCCCCCCCCCC(=O)N[C@@H](CCC(=O)NCCCC[C@H](NC(=O)[C@H](C)NC(=O)[C@H](C)NC(=O)[C@H](CCC(N)=O)NC(=O)CNC(=O)[C@H](CCC(=O)O)NC(=O)[C@H](CC(C)C)NC(=O)[C@H](Cc1ccc(O)cc1)NC(=O)[C@H](CO)NC(=O)[C@H](CO)NC(=O)[C@@H](NC(=O)[C@H](CC(=O)O)NC(=O)[C@H](CO)NC(=O)[C@@H](NC(=O)[C@H](Cc1ccccc1)NC(=O)[C@@H](NC(=O)CNC(=O)[C@H](CCC(=O)O)NC(=O)[C@H](C)NC(=O)[C@@H](N)Cc1cnc[nH]1)[C@@H](C)O)[C@@H](C)O)C(C)C)C(=O)N[C@@H](CCC(=O)O)C(=O)N[C@@H](Cc1ccccc1)C(=O)N[C@H](C(=O)N[C@@H](C)C(=O)N[C@@H](Cc1c[nH]c2ccccc12)C(=O)N[C@@H](CC(C)C)C(=O)N[C@H](C(=O)N[C@@H](CCCNC(=N)N)C(=O)NCC(=O)N[C@@H](CCCNC(=N)N)C(=O)NCC(=O)O)C(C)C)[C@@H](C)CC)C(=O)O [Liraglutide, liraglutide]
- Vd/F ([1]; human, in vivo, sc, healthy Chinese subjects, plasma LC-MS/MS, non-compartmental, mean ± SD (%CV), read-out: Vz/F (apparent volume of distribution)): 8.34 L
- Geometric mean ratio (T/R) of Cmax ([1]; test liraglutide injection versus Victoza, equivalence interval 80.00%–125.00%, 90% CI 99.54–108.10): 103.73%
- Geometric mean ratio (T/R) of AUC0-t ([1]; test liraglutide injection versus Victoza, equivalence interval 80.00%–125.00%, 90% CI 99.85–106.26): 103.01%
- Geometric mean ratio (T/R) of AUC0-∞ ([1]; test liraglutide injection versus Victoza, equivalence interval 80.00%–125.00%, 90% CI 100.04–106.11): 103.03%
- Tolerability (in words) ([2]; healthy Chinese subjects): well tolerated
- AEs leading to exit, Instance [2, 6]: 0
- AEs of grade 1 and above, Instance [2, 6]: 0
- Blurred right vision, Instance [2, 6]: 0
- Elevated blood glucose, Instance [2, 6]: 0
- Elevated free thyroxine, Instance [2, 6]: 1
- Elevated hypersensitivity thyroid-stimulating hormone, Instance [2, 6]: 1
- Hyperuricemia, Instance [2, 6]: 1
- Increased alanine aminotransferase, Instance [2, 6]: 0
- Increased urine leukocytes, Instance [2, 6]: 0
- Leukocyte increase, Instance [2, 6]: 1
- Serious AEs, Instance [2, 6]: 0
- AEs leading to exit, Number of cases (n%) ([2]; proportion of subjects, N = 36): 0%
- AEs of grade 1 and above, Number of cases (n%) ([2]; proportion of subjects, N = 36): 0%
- Blurred right vision, Number of cases (n%) ([2]; proportion of subjects, N = 36): 0%
- Elevated blood glucose, Number of cases (n%) ([2]; proportion of subjects, N = 36): 0%
- Elevated free thyroxine, Number of cases (n%) ([2]; proportion of subjects, N = 36): 2.78%
- Elevated hypersensitivity thyroid-stimulating hormone, Number of cases (n%) ([2]; proportion of subjects, N = 36): 2.78%
- Hyperuricemia, Number of cases (n%) ([2]; proportion of subjects, N = 36): 2.78%
- Increased alanine aminotransferase, Number of cases (n%) ([2]; proportion of subjects, N = 36): 0%
- Increased urine leukocytes, Number of cases (n%) ([2]; proportion of subjects, N = 36): 0%
- Leukocyte increase, Number of cases (n%) ([2]; proportion of subjects, N = 36): 2.78%
- Serious AEs, Number of cases (n%) ([2]; proportion of subjects, N = 36): 0%
- Total AEs, Number of cases (n%) ([2]; proportion of subjects, N = 36): 8.33%
- Number of adverse reactions / AEs ([2]; 36 subjects per group): four
- Number of possible related adverse reactions (times) ([2]; 36 subjects per group): three
- Subjects with adverse reactions (proportion) ([2]; 36 subjects per group): 8.33%
- Subjects with adverse reactions / AEs (number of subjects) ([2]; 36 subjects per group): Three
- Subjects with possible related adverse reactions (number of subjects) ([2]; 36 subjects per group): two
- Subjects with possible related adverse reactions (proportion) ([2]; 36 subjects per group): 5.56%
- Short-term stability (ULOQ) of the working solution ([3]; aqueous mixture of formic acid and acetonitrile): 146.9 h
- Stability of the biological samples after preparation ([3]; prepared plasma samples): 21.5 h
- Mean apparent volume of distribution [4, 7]: approximately 13 L
- Mean peak (Cmax) [4, 7]: 35 ng/mL
- Time to maximum concentration after dosing [4, 7]: 8 to 12 h
- Total exposure (AUC) [4, 7]: 960 ng·h/mL
- Mean apparent clearance ([4]; single dose, subcutaneous administration): approximately 1.2 L/h
- Proportion of treated group with low-titer anti-liraglutide antibodies ([5]; five clinical trials of 26 weeks or longer, end of treatment): Approximately 8.6%
- Incidence of gastrointestinal adverse reactions ([5]; patients, five double-blind clinical trials of 26 weeks or longer, dose-related): 41%

Molecule: GLP-1: Endogenous incretin hormone secreted primarily by intestinal L-cells
- Effective half-life (dipeptidyl dipeptidase-4): only a few minutes
